{"source": "patent EP4380555B1", "about": "“COMPOSITION COMPRISING D-MANNOSE, N-ACETYLCYSTEINE AND PALMITOYLETHANOLAMIDE AND ITS USE FOR THE TREATMENT OF URIRNARY TRACT INFECTIONS” (Agave S.r.l., priority 2021, dated 2023)", "assay_type_in_all_cases": "cell-based", "key": {"[1]": {"system": "Escherichia coli (DSM 1576)", "assay": "MIC determination by broth dilution (CLSI M07), 96-well plates", "settings": "Escherichia coli, DSM1576; E. coli, 37°C, 24 h", "experimental": "(§1) The antimicrobial activity of the product Comp. 1 in Example 10 was tested in vitro according to method CLSI M07 \"Methods for dilution Antimicrobial susceptibility tests for bacteria that grow aerobically\".\n(§2) For this purpose, the MIC (Minimum Inhibitory Concentration) values were determined with respect to the main microorganisms responsible for urinary tract infections.\n(§3) More specifically, the microorganisms utilised were: Escherichia coli (DSM 1576), Klebsiella pneumoniae (DSM 30104), and Enterococcus faecalis(DSM 20477).\n(§4) For each experiment conducted, the bacteria stated above were revived from a cell bank stored at -80°C. […]\n(§5) The assay to determine the MIC was conducted in 96-well plates testing 12 concentrations (serial dilutions) of each sample. 200 µL of the sample, prepared at a concentration of 2x with respect to the maximum concentration being tested, was dispensed into the first well and 100 µL medium was added to the subsequent wells, performing serial dilutions of 1:2 up to 12th well. Finally, 100 µL of each microorganism at a concentration of 10^5 was inoculated into each well.\n(§6) Two antibiotics were used as controls: Fosfomycin (Sigma) and Ceftriaxone (Sigma) at different final concentrations based on the microorganism utilised; both the antibiotics were dissolved in sterile water and then filtered with 0.22 µm filters.\n(§7) Growth was tested and the sterility of the medium and of the product was tested. The antimicrobial activity of the D-mannose was also assessed individually. The plates thus prepared were incubated at 37°C for 24h and the results were then observed (Figure 1). The final concentrations tested for each product analysed are stated in Table 2."}, "[2]": {"system": "Klebsiella pneumoniae (DSM 30104)", "assay": "MIC determination by broth dilution (CLSI M07), 96-well plates", "settings": "Klebsiella pneumoniae, DSM30104; Klebsiella, 37°C, 24 h", "experimental": "as §1, §2, §3, §4, §5, §6, §7"}, "Klebsiella pneumoniae [3]": {"system": "Klebsiella pneumoniae", "assay": "Minimum biofilm eradication concentration (MBEC), 72 h preformed biofilm, crystal violet staining", "settings": "K. pneumoniae; 72 h biofilm, 24 h treatment", "experimental": "(§8) To determine the minimum biofilm eradication concentration, 48-well plates were utilised. The microorganisms were incubated for 72 h at 37°C to allow the formation of the biofilm. Once formed, the biofilm was treated with fosfomycin and with the product Comp. 1 in Example 10. In particular, after the formation of the biofilm, the supernatant was suctioned and replaced with solutions containing gradually decreasing concentrations of product or of fosfomycin. The plates thus prepared were incubated for 24 h at 37°C. At the end of the incubation time, the supernatant present in each well was removed, together with the bacteria that was not attached to the plate and, after washing, the plates were incubated at 60°C for 2 hours to fix the cells before the staining with crystal violet. The crystal violet staining was performed to assess the effect of the product and the fosfomycin on the removal of the biofilm. 50 µL crystal violet dissolved in deionised water was dispensed into each well. After 5 minutes of incubation at room temperature, each well was washed three times with PBS 1x. The biofilm eradication activity was viewed under microscopic observation (Figures 7-9). The final concentrations tested for each product are stated in Table 4 Table 4 [table]"}, "Enterococcus faecium [4]": {"system": "Enterococcus faecium", "assay": "Minimum biofilm eradication concentration (MBEC), 72 h preformed biofilm, crystal violet staining", "settings": "E. faecium; fosfomycin 3000-23.44 µg/mL tested", "experimental": "as §8"}, "Escherichia coli [5]": {"system": "Escherichia coli", "assay": "Minimum biofilm eradication concentration (MBEC), 72 h preformed biofilm, crystal violet staining", "settings": "E.coli; fosfomycin 30000-234.38 µg/mL tested", "experimental": "as §8"}, "Klebsiella pneumoniae [6]": {"system": "Klebsiella pneumoniae", "assay": "Minimum biofilm inhibitory concentration (MBIC), crystal violet staining, comparison with fosfomycin", "settings": "K. pneumoniae; 24 h", "experimental": "(§9) The capacity of the product Comp. […] The formation of the biofilm was viewed by means of Crystal Violet staining, wherein the stain penetrates the bacterial cells and turns them purple. To determine the MBIC, 48-well plates were utilised. 200 µL of the sample, prepared at a concentration of 2x with respect to the maximum concentration being tested, was dispensed into the first well and 100 µL of medium was added to the subsequent wells, performing serial dilutions of 1:2 up to the 8th well. Finally, 100 µL of each microorganism at a concentration of 10^5 were inoculated into each well. The biofilm inhibition activity of the fosfomycin, at a lower concentration with respect to the MIC value measured in Example 10, was also assessed and the sterility and growth tests were performed for each microorganism. The multiwell plates were incubated at 37°C for 24 hours and then the supernatant present was removed, together with the planktonic bacteria not attached to the plate. The biofilm was then washed 3 times with PBS and subsequently the cells were fixed by means of incubation at 60°C for 2 hours, before being stained with crystal violet. The crystal violet staining was performed to assess the effect of the product and the fosfomycin on the formation of the biofilm. 50 µL crystal violet dissolved in deionised water was dispensed into each well and, after 5 minutes of incubation at room temperature, each well was finally washed three times with PBS 1x. The biofilm inhibition activity was viewed by microscopic observation under stereomicroscope and optical microscope using the phase-contrast method. The final concentrations tested for each sample are stated in Table 3. Table 3 [table]"}, "Enterococcus faecium [7]": {"system": "Enterococcus faecium", "assay": "Minimum biofilm inhibitory concentration (MBIC), crystal violet staining, comparison with fosfomycin", "settings": "E. faecium; 24 h", "experimental": "as §9"}, "Escherichia coli [8]": {"system": "Escherichia coli", "assay": "Minimum biofilm inhibitory concentration (MBIC), crystal violet staining, comparison with fosfomycin", "settings": "E. coli; 24 h", "experimental": "as §9"}, "Enterococcus faecium [9]": {"system": "Enterococcus faecium", "assay": "MIC determination by broth dilution (CLSI M07), 96-well plates", "settings": "Enterococcus faecium; E. faecium, 37°C, 24 h"}}}
{"smiles": "C[C@@H]1O[C@@H]1P(=O)(O)O", "note": "[fosfomycin, Fosfomycin]", "values": [{"measurement": "MIC", "setting": "[1]", "value": 19.5, "unit": "µg/mL"}, {"measurement": "MIC", "setting": "[2]", "value": 5000, "unit": "µg/mL"}, {"measurement": "concentrations with biofilm eradication activity", "setting": "Klebsiella pneumoniae [3]", "value": "greater than 468 µg/mL"}, {"measurement": "biofilm eradication effect", "setting": "Enterococcus faecium [4]", "value": "did not seem to have a biofilm eradication effect"}, {"measurement": "biofilm eradication effect", "setting": "Escherichia coli [5]", "value": "did not seem to have a biofilm eradication effect"}, {"measurement": "concentrations with a biofilm inhibition effect", "setting": "Klebsiella pneumoniae [6]", "value": "≥ 78", "unit": "µg/mL"}, {"measurement": "concentration necessary for biofilm inhibition effect", "setting": "Enterococcus faecium [7]", "value": "at least 321 µg/mL"}, {"measurement": "concentrations with a biofilm inhibition effect", "setting": "Escherichia coli [8]", "value": "≥ 78", "unit": "µg/mL"}, {"measurement": "MIC", "setting": "Enterococcus faecium [9]", "value": 78.1, "unit": "µg/mL"}]}
